From PubChem BioAssay AID1259407 (Chemical Carcinogenesis Research Information System (CCRIS), 2018)
Activity calls are given as the source filed them. How the calls were made is not given here.

Test system: CCRIS mutagenicity, Ames/micronucleus/aberration tests
Test: CCRIS mutagenicity studies
[1] = Test System: AMES SALMONELLA TYPHIMURIUM, Strain/Indicator: TA98, Metabolic Activation: NONE, Method: STANDARD PLATE
[2] = Test System: AMES SALMONELLA TYPHIMURIUM, Strain/Indicator: TA98, Metabolic Activation: RAT, LIVER, S-9, AROCLOR 1254, Method: STANDARD PLATE
[3] = Test System: AMES SALMONELLA TYPHIMURIUM, Strain/Indicator: TA100, Metabolic Activation: NONE, Method: STANDARD PLATE
[4] = Test System: AMES SALMONELLA TYPHIMURIUM, Strain/Indicator: TA100, Metabolic Activation: RAT, LIVER, S-9, AROCLOR 1254, Method: STANDARD PLATE
[5] = Test System: AMES SALMONELLA TYPHIMURIUM, Strain/Indicator: TA1535, Metabolic Activation: NONE, Method: STANDARD PLATE
[6] = Test System: AMES SALMONELLA TYPHIMURIUM, Strain/Indicator: TA1535, Metabolic Activation: RAT, LIVER, S-9, AROCLOR 1254, Method: STANDARD PLATE
[7] = Test System: AMES SALMONELLA TYPHIMURIUM, Strain/Indicator: TA1537, Metabolic Activation: NONE, Method: STANDARD PLATE
[8] = Test System: AMES SALMONELLA TYPHIMURIUM, Strain/Indicator: TA1537, Metabolic Activation: RAT, LIVER, S-9, AROCLOR 1254, Method: STANDARD PLATE
[9] = Test System: AMES SALMONELLA TYPHIMURIUM, Strain/Indicator: TA1535, Metabolic Activation: NONE, Method: PREINCUBATION

## Cc1nnc2n1-c1ccc(Cl)cc1C(c1ccccc1Cl)=NC2
[1]
  mutagenic call: inactive; negative
[2]
  mutagenic call: inactive; negative
[3]
  mutagenic call: inactive; negative
[4]
  mutagenic call: inactive; negative
Test System: AMES SALMONELLA TYPHIMURIUM, Strain/Indicator: TA102, Metabolic Activation: NONE, Method: STANDARD PLATE
  mutagenic call: inactive; negative
Test System: AMES SALMONELLA TYPHIMURIUM, Strain/Indicator: TA102, Metabolic Activation: RAT, LIVER, S-9, AROCLOR 1254, Method: STANDARD PLATE
  mutagenic call: inactive; negative
[5]
  mutagenic call: inactive; negative
[6]
  mutagenic call: inactive; negative
[7]
  mutagenic call: inactive; negative
[8]
  mutagenic call: inactive; negative
Test System: E. COLI, Strain/Indicator: WP2 UVRA, Metabolic Activation: NONE, Method: STANDARD PLATE
  mutagenic call: inactive; negative
Test System: E. COLI, Strain/Indicator: WP2 UVRA, Metabolic Activation: RAT, LIVER, S-9, AROCLOR 1254, Method: STANDARD PLATE
  mutagenic call: inactive; negative

## CN(C)CCC=C1c2ccccc2CCc2ccccc21
[1]
  mutagenic call: inactive; negative
[2]
  mutagenic call: inactive; negative
[3]
  mutagenic call: inactive; negative
[4]
  mutagenic call: inactive; negative
[5]
  mutagenic call: inactive; negative
[6]
  mutagenic call: inactive; negative
[7]
  mutagenic call: inactive; negative
[8]
  mutagenic call: inactive; negative

## Nc1cccc2nc3ccccc3c(N)c12
[9]
  mutagenic call: inactive; negative
Test System: AMES SALMONELLA TYPHIMURIUM, Strain/Indicator: TA1535, Metabolic Activation: RAT, LIVER, S-9, TETRACHLOROBIPHENYL, Method: PREINCUBATION
  mutagenic call: active; positive
Test System: AMES SALMONELLA TYPHIMURIUM, Strain/Indicator: TA1537, Metabolic Activation: NONE, Method: PREINCUBATION
  mutagenic call: active; positive
Test System: AMES SALMONELLA TYPHIMURIUM, Strain/Indicator: TA1537, Metabolic Activation: RAT, LIVER, S-9, TETRACHLOROBIPHENYL, Method: PREINCUBATION
  mutagenic call: active; positive
Test System: AMES SALMONELLA TYPHIMURIUM, Strain/Indicator: TA1538, Metabolic Activation: NONE, Method: PREINCUBATION
  mutagenic call: inactive; negative
Test System: AMES SALMONELLA TYPHIMURIUM, Strain/Indicator: TA1538, Metabolic Activation: RAT, LIVER, S-9, TETRACHLOROBIPHENYL, Method: PREINCUBATION
  mutagenic call: active; positive
Test System: AMES SALMONELLA TYPHIMURIUM, Strain/Indicator: TA1975, Metabolic Activation: RAT, LIVER, S-9, TETRACHLOROBIPHENYL, Method: PREINCUBATION
  mutagenic call: active; positive
Test System: AMES SALMONELLA TYPHIMURIUM, Strain/Indicator: TA1977, Metabolic Activation: NONE, Method: PREINCUBATION
  mutagenic call: active; positive
Test System: AMES SALMONELLA TYPHIMURIUM, Strain/Indicator: TA1977, Metabolic Activation: RAT, LIVER, S-9, TETRACHLOROBIPHENYL, Method: PREINCUBATION
  mutagenic call: active; positive
Test System: AMES SALMONELLA TYPHIMURIUM, Strain/Indicator: TA1978, Metabolic Activation: RAT, LIVER, S-9, TETRACHLOROBIPHENYL, Method: PREINCUBATION
  mutagenic call: active; positive

## CC(=O)ON(C(C)=O)c1ccc2c(c1)Cc1ccccc1-2
[1]
  mutagenic call: active; positive
[2]
  mutagenic call: active; positive
Test System: AMES SALMONELLA TYPHIMURIUM, Strain/Indicator: TA1538, Metabolic Activation: NONE, Method: STANDARD PLATE
  mutagenic call: active; positive
Test System: AMES SALMONELLA TYPHIMURIUM, Strain/Indicator: TA1538, Metabolic Activation: RAT, LIVER, S-9, KC500 OR PHENOBARBITAL, Method: LIQUID SUSPENSION
  mutagenic call: active; positive
Test System: CHINESE HAMSTER V-79, Strain/Indicator: V-79/6-THIOGUANINE, Metabolic Activation: NONE
  mutagenic call: active; positive
Test System: CHINESE HAMSTER V-79, Strain/Indicator: V-79/8-AZAGUANINE, Metabolic Activation: NONE, Method: STANDARD PLATE
  mutagenic call: active; positive
Test System: UDS HUMAN CELLS, Strain/Indicator: THY INCORP (NON-S-PHASE), Metabolic Activation: NONE, Method: LIQUID SCINTILLATION COUNTING
  mutagenic call: active; positive
Test System: UDS HUMAN FIBROBLASTS, Strain/Indicator: THY INCORP (NON-S-PHASE), Metabolic Activation: NONE, Method: AUTORADIOGRAPHY
  mutagenic call: active; positive
Test System: UDS HUMAN FIBROBLASTS, Strain/Indicator: THY INCORP (NON-S-PHASE), Metabolic Activation: NONE, Method: LIQUID SCINTILLATION COUNTING
  mutagenic call: active; positive
Test System: UDS HUMAN LYMPHOCYTES, Strain/Indicator: THY INCORP (NON-S-PHASE), Metabolic Activation: NONE, Method: LIQUID SCINTILLATION COUNTING
  mutagenic call: active; positive
Test System: UDS RODENT CELLS, Strain/Indicator: THY INCORP (NON-S-PHASE), Metabolic Activation: NONE, Method: AUTORADIOGRAPHY
  mutagenic call: active; positive
Test System: UDS RODENT CELLS, Strain/Indicator: THY INCORP (NON-S-PHASE), Metabolic Activation: NONE, Method: LIQUID SCINTILLATION COUNTING
  mutagenic call: active; positive
Test System: UDS RODENT HEPATOCYTES, Strain/Indicator: THY INCORP (NON-S-PHASE), Method: LIQUID SCINTILLATION COUNTING
  mutagenic call: active; positive
Test System: UDS RODENT PRIMARY CELLS, Strain/Indicator: THY INCORP (NON-S-PHASE), Metabolic Activation: NONE, Method: AUTORADIOGRAPHY
  mutagenic call: active; positive

## ClN1C2c3ccccc3-c3ccccc3C21 (configuration not stated)
[3]
  mutagenic call: active; positive
Test System: CHINESE HAMSTER V-79, Strain/Indicator: V-79/6-THIOGUANINE, Metabolic Activation: NONE, Method: STANDARD PLATE
  mutagenic call: active; positive

## N#CCc1ccccc1[N+](=O)[O-]
Test System: AMES SALMONELLA TYPHIMURIUM, Strain/Indicator: TA97, Metabolic Activation: HAMSTER, LIVER, S-9, AROCLOR 1254 (10%), Method: PREINCUBATION
  mutagenic call: inactive; negative
Test System: AMES SALMONELLA TYPHIMURIUM, Strain/Indicator: TA97, Metabolic Activation: NONE, Method: PREINCUBATION
  mutagenic call: active; positive
Test System: AMES SALMONELLA TYPHIMURIUM, Strain/Indicator: TA97, Metabolic Activation: RAT, LIVER, S-9, AROCLOR 1254 (10%), Method: PREINCUBATION
  mutagenic call: inactive; negative
Test System: AMES SALMONELLA TYPHIMURIUM, Strain/Indicator: TA98, Metabolic Activation: HAMSTER, LIVER, S-9, AROCLOR 1254 (10%), Method: PREINCUBATION
  mutagenic call: inactive; negative
Test System: AMES SALMONELLA TYPHIMURIUM, Strain/Indicator: TA98, Metabolic Activation: NONE, Method: PREINCUBATION
  mutagenic call: active; positive
Test System: AMES SALMONELLA TYPHIMURIUM, Strain/Indicator: TA98, Metabolic Activation: RAT, LIVER, S-9, AROCLOR 1254 (10%), Method: PREINCUBATION
  mutagenic call: inactive; negative
Test System: AMES SALMONELLA TYPHIMURIUM, Strain/Indicator: TA100, Metabolic Activation: HAMSTER, LIVER, S-9, AROCLOR 1254 (10%), Method: PREINCUBATION
  mutagenic call: active; positive
Test System: AMES SALMONELLA TYPHIMURIUM, Strain/Indicator: TA100, Metabolic Activation: NONE, Method: PREINCUBATION
  mutagenic call: active; positive
Test System: AMES SALMONELLA TYPHIMURIUM, Strain/Indicator: TA100, Metabolic Activation: RAT, LIVER, S-9, AROCLOR 1254 (10%), Method: PREINCUBATION
  mutagenic call: active; positive
Test System: AMES SALMONELLA TYPHIMURIUM, Strain/Indicator: TA1535, Metabolic Activation: HAMSTER, LIVER, S-9, AROCLOR 1254 (10%), Method: PREINCUBATION
  mutagenic call: active; positive
[9]
  mutagenic call: inactive; negative
Test System: AMES SALMONELLA TYPHIMURIUM, Strain/Indicator: TA1535, Metabolic Activation: RAT, LIVER, S-9, AROCLOR 1254 (10%), Method: PREINCUBATION
  mutagenic call: active; positive

## Clc1ccc(CN2[C@@H]3c4ccccc4-c4ccccc4[C@@H]32)cc1 (some centres not stated)
[3]
  mutagenic call: active; positive

## O=C(Cl)OCC1c2ccccc2-c2ccccc21
[1]
  mutagenic call: inactive; negative
[2]
  mutagenic call: inactive; negative
[3]
  mutagenic call: inactive; negative
[4]
  mutagenic call: inactive; negative
[5]
  mutagenic call: inactive; negative
[6]
  mutagenic call: inactive; negative
[7]
  mutagenic call: inactive; negative
[8]
  mutagenic call: active; positive
